Molecules are shown by their SMILES.

The values below come from US12404239B2, “Modulators of BCL6 as ligand directed degraders” (Celgene Corporation, priority 2022, dated 2025).

One assay concerns the target T1, BCL6 (Homo sapiens, UniProt P41182).
T1 construct: HiBiT-tag knocked into endogenous BCL6 locus using CRISPR; endogenous in cells; host or cells: DHL-4_BCL6_HiBiT cells (CRISPR knock-in)
The assay can be described thus: BCL6_HiBiT degradation assay (2 h). The class given is cell-based. Conditions: DHL-4_BCL6_HiBiT cells. Summed up:
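DHL-4 cells carrying CRISPR HiBiT knock-in at endogenous BCL6, treated 2 h at 37 °C with 10-point 3-fold dilutions from 1-10 μM. BCL6 level read by Nano-Glo HiBiT lytic luminescence normalized to DMSO; four-parameter fit gives degradation EC50 and Yconstant (% remaining at maximal effect).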
For `CC1CN(c2ncc(Cl)c(Nc3ccc4c(c3)CC(=O)N4C)n2)CCCC1Nc1ccc2c(C3CCC(=O)NC3=O)nn(C)c2c1` (single isomer, unassigned) [Example 50, 3-(6-((1-(5-chloro-4-((1-methyl-2-oxoindolin-5-yl)amino)pyrimidin-2-yl)-3-methylazepan-4-yl)amino)-1-methyl-1H-indazol-3-yl)piperidine-2,6-dione], the “YCon (% remaining maximal effect)” value was “(>60%)”.

Still in this assay, the particulars now being: DHL-4_BCL6_HiBiT cells, read-out: YCon (% remaining maximal effect).
Turning to `CN1C(=O)Cc2cc(Nc3nc(N4CCC(N(C)c5ccc6c(C7CCC(=O)NC7=O)nn(C)c6c5)CC4)ncc3Cl)ccc21` (stereo not drawn) [Example 7, 3-(6-((1-(5-chloro-4-((1-methyl-2-oxoindolin-5-yl)amino)pyrimidin-2-yl)piperidin-4-yl)(methyl)amino)-1-methyl-1H-indazol-3-yl)piperidine-2,6-dione], the Percent BCL6 remaining at maximal degradation (Ycon) is over 60%. Still for that read-out and setting: the same measure for `CO[C@@H]1CN(c2ncc(C#N)c(Nc3ccc4c(c3)CC(=O)N4C)n2)CC[C@H]1Nc1ccc2c(N3CCC(=O)NC3=O)nn(C)c2c1` [Example 157, 2-((3R,4R)-4-((3-(2,4-dioxotetrahydropyrimidin-1(2H)-yl)-1-methyl-1H-indazol-6-yl)amino)-3-methoxypiperidin-1-yl)-4-((1-methyl-2-oxoindolin-5-yl)amino) pyrimidine-5-carbonitrile]: 20 to 60%; for `CN1C(=O)Cc2cc(Nc3nc(N4CC[C@@H](Nc5ccc6c(C7CCC(=O)NC7=O)nn(C)c6c5)[C@@H](F)C4)ncc3Cl)ccc21` (stereo partly drawn) [Example 44, 3-(6-(((3S,4R)-1-(5-chloro-4-((1-methyl-2-oxoindolin-5-yl)amino)pyrimidin-2-yl)-3-fluoropiperidin-4-yl)amino)-1-methyl-1H-indazol-3-yl)piperidine-2,6-dione]: over 60%. As to `CN1C(=O)Cc2cc(Nc3nc(N4CCN(c5ccc6c(C7CCC(=O)NC7=O)nn(C)c6c5)C(=O)C4)ncc3Cl)ccc21` (stereo not drawn) [Example 37, 3-(6-(4-(5-chloro-4-((1-methyl-2-oxoindolin-5-yl)amino)pyrimidin-2-yl)-2-oxopiperazin-1-yl)-1-methyl-1H-indazol-3-yl)piperidine-2,6-dione], the Percent BCL6 remaining at maximal degradation (Ycon) is over 60%. The same measure, in the same setting: with `CN1C(=O)Cc2cc(Nc3nc(N(C)[C@@H]4CCN(c5ccc6c(C7CCC(=O)NC7=O)nn(C)c6c5)C(=O)C4)ncc3Cl)ccc21` (single isomer, unassigned) [Example 129] the figure was under 20%; with `Cn1nc(C2CCC(=O)NC2=O)c2ccc(NC3CCN(c4ncc(Cl)c(Nc5ccc6c(c5)CC(=O)N6)n4)CC3)cc21` (stereo not drawn) [Example 63, 3-(6-((1-(5-chloro-4-((2-oxoindolin-5-yl)amino)pyrimidin-2-yl)piperidin-4-yl)amino)-1-methyl-1H-indazol-3-yl)piperidine-2,6-dione], over 60%; with `C[C@@H]1CN(c2nc(F)c(Cl)c(Nc3ccc4c(c3)CC(=O)N4C)n2)CC[C@H]1Nc1ccc2c(C3CCC(=O)NC3=O)nn(C)c2c1` (stereo partly drawn) [Example 123, 3-(6-(((3R,4R)-1-(5-chloro-4-fluoro-6-((1-methyl-2-oxoindolin-5-yl)amino)pyrimidin-2-yl)-3-methylpiperidin-4-yl)amino)-1-methyl-1H-indazol-3-yl)piperidine-2,6-dione], under 20%. Same read-out and setting: the same measure for `C[C@@H]1CN(c2ncc(Cl)c(Nc3ccc4c(c3)CC(=O)N4C)n2)CC[C@H]1Nc1ccc2c([C@H]3CCC(=O)NC3=O)nn(C)c2c1` (single isomer, unassigned) [Example 71]: under 20%. Regarding `C[C@@H]1CN(c2ncc(Cl)c(Nc3ccc4c(c3)CC(=O)N4C)n2)CC[C@H]1N(C)c1ccc2c(C3CCC(=O)NC3=O)nn(C)c2c1` (stereo partly drawn) [Example 73, 3-(6-(((3R,4R)-1-(5-chloro-4-((1-methyl-2-oxoindolin-5-yl)amino)pyrimidin-2-yl)-3-methylpiperidin-4-yl)(methyl)amino)-1-methyl-1H-indazol-3-yl)piperidine-2,6-dione], the Percent BCL6 remaining at maximal degradation (Ycon) was under 20%.

On to `CN1C(=O)Cc2cc(Nc3nc(N(C)C4CCN(c5cc6c(cn5)c(C5CCC(=O)NC5=O)nn6C)CC4)ncc3Cl)ccc21` (stereo not drawn) [Example 60, 3-(6-(4-((5-chloro-4-((1-methyl-2-oxoindolin-5-yl)amino)pyrimidin-2-yl)(methyl)amino)piperidin-1-yl)-1-methyl-1H-pyrazolo[4,3-c]pyridin-3-yl)piperidine-2,6-dione], for which the Percent BCL6 remaining at maximal degradation (Ycon) was over 60%.

Take `CN1C(=O)Cc2cc(Nc3nc(N4CC[C@H](Nc5ccc6c(C7CCC(=O)NC7=O)nn(C)c6c5)[C@H](C(F)(F)F)C4)ncc3Cl)ccc21` (relative stereo) [Example 147, rel-3-(6-(((3R,4S)-1-(5-chloro-4-((1-methyl-2-oxoindolin-5-yl)amino)pyrimidin-2-yl)-3-(trifluoromethyl)piperidin-4-yl)amino)-1-methyl-1H-indazol-3-yl)piperidine-2,6-dione]: the Percent BCL6 remaining at maximal degradation (Ycon) is over 60%. Take `CO[C@@H]1CN(c2nc(F)c(Cl)c(Nc3ccc4c(c3)CC(=O)N4C)n2)CC[C@H]1Nc1ccc2c(C3(C)CCC(=O)NC3=O)nn(C)c2c1` (stereo partly drawn) [Example 159, 3-(6-(((3R,4R)-1-(5-chloro-4-fluoro-6-((1-methyl-2-oxoindolin-5-yl)amino)pyrimidin-2-yl)-3-methoxypiperidin-4-yl)amino)-1-methyl-1H-indazol-3-yl)-3-methylpiperidine-2,6-dione]: the Percent BCL6 remaining at maximal degradation (Ycon) lay within 20 to 60%.

As for `CCN1C(=O)Cc2cc(Nc3nc(N4CCC(Nc5ccc6c([C@H]7CCC(=O)NC7=O)nn(C)c6c5)CC4)ncc3Cl)ccc21` (single isomer, unassigned) [Example 90], the Percent BCL6 remaining at maximal degradation (Ycon) is over 60%. Consider `CN1C(=O)Cc2cc(Nc3nc(N4CCC(Nc5ccc6c(C7CCC(=O)NC7=O)nn(C)c6c5)CC45CCC5)ncc3Cl)ccc21` (stereo not drawn) [Example 1, 3-(6-((5-(5-chloro-4-((1-methyl-2-oxoindolin-5-yl)amino)pyrimidin-2-yl)-5-azaspiro[3.5]nonan-8-yl)amino)-1-methyl-1H-indazol-3-yl)piperidine-2,6-dione], for which the Percent BCL6 remaining at maximal degradation (Ycon) was 20 to 60%. As for `C[C@@H]1CN(c2ncc(Cl)c(Nc3ccc4c(c3)CC(=O)N4CC(C)(C)F)n2)CC[C@H]1Nc1ccc2c(C3CCC(=O)NC3=O)nn(C)c2c1` (stereo partly drawn) [Example 121, 3-(6-(((3R,4R)-1-(5-chloro-4-((1-(2-fluoro-2-methylpropyl)-2-oxoindolin-5-yl)amino)pyrimidin-2-yl)-3-methylpiperidin-4-yl)amino)-1-methyl-1H-indazol-3-yl)piperidine-2,6-dione], the Percent BCL6 remaining at maximal degradation (Ycon) was under 20%. Still for that read-out and setting: the same measure for `C[C@@H]1CN(c2ncc(Cl)c(Nc3ccc4c(c3)CC(=O)N4CCC(C)(C)F)n2)CC[C@H]1Nc1ccc2c(C3CCC(=O)NC3=O)nn(C)c2c1` (stereo partly drawn) [Example 107, 3-(6-(((3R,4R)-1-(5-chloro-4-((1-(3-fluoro-3-methylbutyl)-2-oxoindolin-5-yl)amino)pyrimidin-2-yl)-3-methylpiperidin-4-yl)amino)-1-methyl-1H-indazol-3-yl)piperidine-2,6-dione]: under 20%; for `C[C@@H]1CN(c2ncc(Cl)c(Nc3ccc4c(c3)C(F)(F)C(=O)N4C)n2)CC[C@H]1Nc1ccc2c(C3CCC(=O)NC3=O)nn(C)c2c1` (stereo partly drawn) [Example 56, 3-(6-(((3R,4R)-1-(5-chloro-4-((3,3-difluoro-1-methyl-2-oxoindolin-5-yl)amino)pyrimidin-2-yl)-3-methylpiperidin-4-yl)amino)-1-methyl-1H-indazol-3-yl)piperidine-2,6-dione]: under 20%; for `C[C@H]1C[C@H](N(C)c2ccc3c([C@@H]4CCC(=O)NC4=O)nn(C)c3c2)CCN1c1ncc(Cl)c(Nc2ccc3c(c2)CC(=O)N3C)n1` (single isomer, unassigned) [Example 88]: over 60%. Still for that read-out and setting: with `C[C@@H]1CN(c2ncc(Cl)c(Nc3ccc4c(c3)CC(=O)N4C)n2)C[C@@H](C)N1c1ccc2c([C@H]3CCC(=O)NC3=O)nn(C)c2c1` (single isomer, unassigned) [Example 79] the figure was 20 to 60%; with `CN1C(=O)Cc2cc(Nc3nc(NC4CCN(c5ccc6c(C7CCC(=O)NC7=O)nn(C)c6c5)CC4(F)F)ncc3Cl)ccc21` (stereo not drawn) [Example 68, 3-(6-(4-((5-chloro-4-((1-methyl-2-oxoindolin-5-yl)amino)pyrimidin-2-yl)amino)-3,3-difluoropiperidin-1-yl)-1-methyl-1H-indazol-3-yl)piperidine-2,6-dione], 20 to 60%. Same read-out and setting: the same measure for `C[C@@H]1CN(c2ncc(Cl)c(Nc3ccc4c(c3)CC(=O)N4C)n2)CC[C@H]1Nc1ccc2c(C3(C)CCC(=O)NC3=O)nn(C)c2c1` (stereo partly drawn) [Example 85, 3-(6-(((3R,4R)-1-(5-chloro-4-((1-methyl-2-oxoindolin-5-yl)amino)pyrimidin-2-yl)-3-methylpiperidin-4-yl)amino)-1-methyl-1H-indazol-3-yl)-3-methylpiperidine-2,6-dione]: under 20%; for `C[C@@H]1CN(c2ncc(Cl)c(Nc3ccc4c(c3)CC(=O)N4CCN3CCOCC3)n2)CC[C@H]1Nc1ccc2c([C@H]3CCC(=O)NC3=O)nn(C)c2c1` (single isomer, unassigned) [Example 102]: under 20%; for `C[C@@H]1CN(c2ncc(C#N)c(Nc3ccc4c(c3F)CC(=O)N4C)n2)CC[C@H]1Nc1ccc2c(C3CCC(=O)NC3=O)nn(C)c2c1` (stereo partly drawn) [Example 118, 2-((3R,4R)-4-((3-(2,6-dioxopiperidin-3-yl)-1-methyl-1H-indazol-6-yl)amino)-3-methylpiperidin-1-yl)-4-((4-fluoro-1-methyl-2-oxoindolin-5-yl)amino)pyrimidine-5-carbonitrile]: under 20%.
